Here are results for 21 molecules from patent US7241791B2, “Substituted 4-(indazol-3-yl)phenols” (Wyeth, priority 2002, dated 2007).

The target of experiment [1] is T1, human ERα (Homo sapiens, UniProt P03372).
T1 sequence (P03372 1-595): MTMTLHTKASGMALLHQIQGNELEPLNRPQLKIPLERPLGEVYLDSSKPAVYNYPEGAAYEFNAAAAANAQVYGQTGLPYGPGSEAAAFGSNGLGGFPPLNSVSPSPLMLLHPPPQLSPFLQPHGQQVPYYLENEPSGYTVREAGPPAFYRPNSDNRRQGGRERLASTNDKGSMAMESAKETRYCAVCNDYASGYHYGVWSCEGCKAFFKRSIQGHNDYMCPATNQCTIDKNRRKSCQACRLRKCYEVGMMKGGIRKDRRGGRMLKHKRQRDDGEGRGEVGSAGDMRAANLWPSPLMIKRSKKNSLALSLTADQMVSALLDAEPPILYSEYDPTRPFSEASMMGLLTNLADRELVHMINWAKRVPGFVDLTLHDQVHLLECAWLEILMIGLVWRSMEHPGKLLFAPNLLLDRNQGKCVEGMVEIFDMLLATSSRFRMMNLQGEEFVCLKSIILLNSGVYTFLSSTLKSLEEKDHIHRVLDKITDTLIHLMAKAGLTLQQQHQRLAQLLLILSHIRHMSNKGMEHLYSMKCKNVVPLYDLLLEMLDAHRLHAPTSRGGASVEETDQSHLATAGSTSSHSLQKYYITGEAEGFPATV
Description: Creatine kinase expression (ER/CK) in Ad5-wt-hERα infected HAECT-1 cells. Particulars: for ER/CK % E2: efficacy relative to the maximal stimulation observed with E2.

Experiment [2] deals with T1, human ERα. Description: IL-6 expression (ELISA, ER/IL-6) in Ad5-wt-hERα infected HAECT-1 cells. To be noted: for ER/IL-6 % E2: efficacy relative to the maximal inhibition observed with E2.
Experiment [3] concerns the target T1, human ERα. Description: NF-κB luciferase reporter (ER/NF-KB-luc) in Ad5-wt-hERα infected HAECT-1 cells. Particulars: for IC50: ER/NF-KB-luc IC50, Ad5-wt-ER infected HAECT-1 cells, IL-1β; for Emax: HAECT1, read-out: ER/NF-KB-luc % E2, efficacy relative to the maximal inhibition observed with E2. (In general: A reporter such as luciferase makes a cellular process visible.)

`Oc1ccc(-c2nn(-c3ccc(Br)cc3)c3cc(O)ccc23)c(O)c1` [Example 7, 4-[1-(4-bromophenyl)-6-hydroxy-1H-indazol-3-yl]benzene-1,3-di I]: on human ERα [1], a half-maximal response (EC50) required 1830 nM and the “ER/CK % E2” value came to 54 % E2. In addition, at human ERα [2], it took 246 nM to reach half-maximal inhibition (IC50) and the “ER/IL-6 % E2” value was 77 % E2. On human ERα [3], the midpoint of inhibition, the IC50, lay at 90 nM and the Emax was 92%.

In the case of `COc1ccc(-n2nc(-c3ccc(O)cc3O)c3ccc(O)cc32)cc1` [Example 11, 4-[6-hydroxy-1-(4-methoxyphenyl)-1H-indazol-3-yl]benzene-1,3-diol], on human ERα [1], the EC50 – broadly, the midpoint of the concentration-response curve – was found to be 114 nM and the “ER/CK % E2” value is 26 % E2. Also, at human ERα [2], the IC50 – broadly, the concentration that gives 50% inhibition – was found to be 2320 nM and the “ER/IL-6 % E2” value amounted to 91 % E2. On human ERα [3], the IC50 worked out at 60 nM and the Emax amounted to 54%.

Turning to `Oc1ccc(-c2nn(-c3cccc(Br)c3)c3cc(O)ccc23)c(O)c1` [Example 14, 4-[1-(3-bromophenyl)-6-hydroxy-1H-indazol-3-yl]benzene-1,3-diol], on human ERα [2], the half-inhibitory concentration (IC50) was 761 nM and the “ER/IL-6 % E2” value came to 67 % E2. In addition, at human ERα [3], the IC50 was found to be 53 nM and the Emax was determined as 73%.

Consider `N#Cc1ccc(-n2nc(-c3ccc(O)cc3O)c3ccc(O)cc32)cc1` [Example 15, 4-[3-(2,4-dihydroxyphenyl)-6-hydroxy-1H-indazol-1-yl]benzonitrile], for which, on human ERα [2], half-maximal inhibition (IC50) was put at 8130 nM and the “ER/IL-6 % E2” value is listed as 110 % E2. Further, at human ERα [3], inhibition was half-maximal at 164 nM (IC50) and the Emax was determined as 94%.

As to `CCCCn1nc(-c2ccc(O)cc2)c2cccc(F)c21` [Example 220, 4-(1-butyl-7-fluoro-1H-indazol-3-yl)phenol], at human ERα [1], the EC50 is 2340 nM and the “ER/CK % E2” value is recorded as 48 % E2. For the same molecule, at human ERα [3], it took 112 nM to reach half-maximal inhibition (IC50) and the Emax amounted to 84%.

Consider `CC(C)n1nc(-c2ccc(O)cc2)c2cccc(-c3ccsc3)c21` [Example 226, 4-(1-isopropyl-7-thien-3-yl-1H-indazol-3-yl)phenol], for which, on human ERα [1], the midpoint of the response, the EC50, lay at 309 nM and the “ER/CK % E2” value is reported as 20 % E2. Moreover, at human ERα [3], 32 nM corresponded to half-maximal inhibition (IC50) and the Emax is 87%.

With `CC(C)n1nc(-c2ccc(O)cc2)c2cccc(-c3cccs3)c21` [Example 227, 4-(1-isopropyl-7-thien-2-yl-1H-indazol-3-yl)phenol], at human ERα [1], the concentration giving a half-maximal response (EC50) came out at 279 nM and the “ER/CK % E2” value worked out at 21 % E2. In addition, at human ERα [3], inhibition was half-maximal at 56 nM (IC50) and the Emax was found to be 70%.

As for `CC(C)n1nc(-c2ccc(O)cc2)c2cccc(-c3ccc(O)c(O)c3)c21` [Example 231, 4-[3-(4-hydroxyphenyl)-1-isopropyl-1H-indazol-7-yl]benzene-1,2-diol], at human ERα [1], the EC50 came to 3250 nM and the “ER/CK % E2” value came out at 32 % E2. On human ERα [3], the half-inhibitory concentration (IC50) is 382 nM and the Emax came to 78%.

With `Cc1ccccc1-c1cccc2c(-c3ccc(O)cc3)nn(C(C)C)c12` [Example 235, 4-[1-isopropyl-7-(2-methylphenyl)-1H-indazol-3-yl]phenol], at human ERα [1], the EC50 turned out to be 223 nM and the “ER/CK % E2” value is 35 % E2. Further, at human ERα [3], the IC50 was 16 nM and the Emax amounted to 74%.

Consider `CC(C)n1nc(-c2ccc(O)cc2)c2cccc(-c3ccccc3)c21` [Example 236, 4-(1-isopropyl-7-phenyl-1H-indazol-3-yl)phenol], for which the half-maximal effective concentration (EC50) at human ERα [1] is 112 nM. For the same molecule, the Emax on human ERα [3] was determined as 83%.

Take `Oc1ccc(-c2nn(C3CCCC3)c3c(-c4ccc(O)c(O)c4)cccc23)cc1` [Example 240, 4-[1-cyclopentyl-3-(4-hydroxyphenyl)-1H-indazol-7-yl]benzene-1,2-diol]: at human ERα [1], the EC50 worked out at 974 nM and the “ER/CK % E2” value is listed as 32 % E2. Further, at human ERα [3], inhibition was half-maximal at 158 nM (IC50) and the Emax was 54%.

Consider `Oc1ccc(-c2nn(C3CCCC3)c3c(-c4ccco4)cccc23)cc1` [Example 244, 4-[1-cyclopentyl-7-(2-furyl)-1H-indazol-3-yl]phenol], for which, on human ERα [1], a half-maximal effect (EC50) was put at 208 nM and the “ER/CK % E2” value stood at 33 % E2. For the same molecule, on human ERα [3], half-maximal inhibition (IC50) required 33 nM and the Emax is 48%.

For the molecule `Oc1ccc(-c2nn(C3CCCC3)c3c(-c4ccccc4)cccc23)cc1` [Example 246, 4-(1-cyclopentyl-7-phenyl-1H-indazol-3-yl)phenol], at human ERα [1], the concentration for a half-maximal effect (EC50) was 136 nM and the “ER/CK % E2” value came to 28 % E2. On human ERα [3], it took 11 nM to reach half-maximal inhibition (IC50) and the Emax is 82%.

Turning to `Cc1cc(O)ccc1-c1nn(C(C)C)c2c(-c3ccsc3)cccc12` [Example 247, 4-(1-isopropyl-7-thien-3-yl-1H-indazol-3-yl)-3-methylphenol], at human ERα [1], the half-maximal effective concentration (EC50) turned out to be 17 nM and the “ER/CK % E2” value is 42 % E2. Moreover, at human ERα [3], half-maximal inhibition (IC50) was put at 12 nM and the Emax was 70%.

For `CSc1ccc(-c2cccc3c(-c4ccc(O)cc4C)nn(C4CCCC4)c23)cc1` [Example 257, 4-{1-cyclopentyl-7-[4-(methylthio)phenyl]-1H-indazol-3-yl}-3-methylphenol], at human ERα [1], the EC50 amounted to 490 nM and the “ER/CK % E2” value is listed as 27 % E2. On human ERα [3], the half-inhibitory concentration (IC50) was found to be 43 nM and the Emax was 76%.

As for `Cc1cc(O)ccc1-c1nn(C2CCCC2)c2c(-c3ccc(O)c(O)c3)cccc12` [Example 259, 4-[1-cyclopentyl-3-(4-hydroxy-2-methylphenyl)-1H-indazol-7-yl]benzene-1,2-diol], on human ERα [1], the response was half-maximal at 143 nM (EC50) and the “ER/CK % E2” value is 38 % E2. On human ERα [3], the IC50 was 18 nM and the Emax was 73%.

As to `Cc1cc(O)ccc1-c1nn(C2CCCC2)c2c(-c3ccco3)cccc12` [Example 263, 4-[1-cyclopentyl-7-(2-furyl)-1H-indazol-3-yl)-3-methylphenol], at human ERα [1], the EC50 was 165 nM and the “ER/CK % E2” value amounted to 17 % E2. Moreover, at human ERα [3], the 50% inhibitory concentration (IC50) was 30 nM and the Emax came to 84%.

With `Cc1cc(O)ccc1-c1nn(C2CCCC2)c2c(-c3ccccc3C)cccc12` [Example 264, 4-[1-cyclopentyl-7-(2-methylphenyl)-1H-indazol-3-yl]-3-methyl-phenol], on human ERα [1], a half-maximal response (EC50) required 15 nM and the “ER/CK % E2” value is listed as 21 % E2. Also, at human ERα [3], the IC50 is 15 nM and the Emax was 74%.

Take `Cc1cc(O)ccc1-c1nn(C2CCCC2)c2c(-c3ccccc3)cccc12` [Example 265, 4-(1-cyclopentyl-7-phenyl-1H-indazol-3-yl)-3-methylphenol]: at human ERα [1], a half-maximal response (EC50) required 138 nM and the “ER/CK % E2” value stood at 28 % E2. Moreover, on human ERα [3], the 50% inhibitory concentration (IC50) is 6 nM and the Emax is 82%.

With `Cc1cc(O)ccc1-c1nn(C2CCCC2)c2c(-c3cc4ccccc4s3)cccc12` [Example 266, 4-[7-(1-benzothien-2-yl)-1-cyclopentyl-1H-indazol-3-yl]-3-methylphenol], at human ERα [1], the EC50 was 213 nM and the “ER/CK % E2” value amounted to 35 % E2. In addition, on human ERα [3], half-maximal inhibition (IC50) was put at 68 nM and the Emax stood at 77%.

For `CC(C)n1nc(-c2ccc(O)cc2)c2cccc(-c3ccco3)c21` [Example 267, 4-[7-(2-furyl)-1-isopropyl-1H-indazol-3-yl]phenol], at human ERα [1], the EC50 was 250 nM and the “ER/CK % E2” value worked out at 35 % E2. In addition, at human ERα [3], the IC50 is 53 nM and the Emax amounted to 64%.
